Results as given in US12246068B2, “Enzymatically activatable peptide-redox modulator conjugates and use thereof” (BRANDEIS UNIVERSITY, priority 2017, dated 2025).
Where a SMILES comes first, the peptide text is derived from it. [ ]: non-standard residue; d: D form. The star is where a group is joined. X1 = O=C(CCC[P+](c1ccccc1)(c1ccccc1)c1ccccc1)*; d(pY) = N[C@H](Cc1ccc(OP(=O)(O)O)cc1)C(=O)O; pY = N[C@@H](Cc1ccc(OP(=O)(O)O)cc1)C(=O)O; NBD = O=[N+]([O-])c1ccc(*)c2nonc12; Cbz = O=C(OCc1ccccc1)*; βAla = NCCC(=O)O; CH2F = FC*

What was measured:
[1] = tested on: Saos2 cells; assay: MTT cell viability assay, Saos2; assay type: cell-based, human; details: for cytotoxicity to Saos2 cells: formed from the precursor by exogenous ALP, concentrations up to 200 μM; for cytotoxicity against Saos2 cell: even at 500 μM; for IC50 against Saos2 cells / IC50: unstimulated Saos2; for IC50: read-out: IC50 against Saos2 cells
Protocol: (§1) Saos2, HeLa, HepG2, T98G, MCF-7 and HS-5 cells were purchased from American-type Culture Collection (ATCC, USA). Saos2 cells were cultured in Macyo's 5A medium supplemented with 15% v/v fetal bovine serum, 100 U/mL penicillin and 100 μg/mL streptomycin. HeLa, HepG2, T98G, MCF-7 cells were cultured in MEM Medium supplemented with 10% v/v fetal bovine serum, HS-5 cells were cultured in Dulbecco's Modified Eagle's medium (DMEM) supplemented with 10% v fetal bovine serum (FBS), 100 U/mL penicillin and 100 μg/mL streptomycin. All cells were cultured at 37° C. in a humidified atmosphere of 5% CO2.
(§2) For the MTT Assay, all cells were seeded in a 96-well plate with the density of 1*10^4 cells per-well (total medium volume of 100 μL). 24 hours post seeding, the solutions with a serial of concentrations (5 concentrations) of different precursors were added to each well. Cells without the treatment of the precursors were used as the control. At designated time (24/48/72 hours), 10 μL MTT solution (5 mg/mL) was added to each well and incubated at 37° C. for another 4 h, and then 100 μL of SDS-HCl solution was added to stop the reduction reaction and dissolve the purple formazan. The absorbance of each well at 595 nm was measured by a multimode microplate reader. The cytotoxicity assay was performed three times and the average value of the three measurements was taken.
To investigate the cellular response to all the precursors, an MTT (3-(4,5-dimethylthiazol-2-yl)-2,5-diphenyl tetrazolium bromide) assay (Gerlier et al., J. Immunol. Methods 94:57 (1986), which is hereby incorporated by reference in its entirety) was first used to examine the viability of human osteosarcoma cells (Saos2, which expresses high level ALP (Farley et al., Metabolism 40:664 (1991), which is hereby incorporated by reference in its entirety)) cultured with the precursors. As a control, the viability of normal human bone marrow stromal cells (HS5) that express low level of ALP on cell surface was also examined (Zhou et al., Chem 1:246 (2016), which is hereby incorporated by reference in its entirety). […] In the presence of exogenous ALP, L-1P (or D-1P) turns into L-1 (or D-1), which is innocuous to Saos2 cells at the concentrations up to 200 μM. […] To investigate the retention of L-1 (or D-1) in the Saos2 cells, the cells were incubated with L-1P (D-1P, 50 μM) for different times. […] On the contrary, the concentration of D-1 decreases little after 6 h incubation. Moreover, the intracellular concentration of D-1 is 3.5 fold of that of L-1 at 6 h incubation, but the ratio increases to 10 fold at 24 h incubation (FIG. 8B).
Three kinds of established ALP inhibitors were used: L-phenylalanine (L-Phe) (Borgers, M. J., Histochem. Cytochem. 21:812 (1973), which is hereby incorporated by reference in its entirety), an efficient uncompetitive inhibitor of placental alkaline phosphatase (PLAP) levamisole, a well-known uncompetitive inhibitor of tissue-nonspecific alkaline phosphatase (TNAP) (Borgers, M. J., Histochem. Cytochem. 21:812 (1973), which is hereby incorporated by reference in its entirety) and CinnGEL 2Me (Zhu et al., Cancer Res. 67:10129 (2007), which is hereby incorporated by reference in its entirety), an inhibitor of protein tyrosine phosphatase (PTP1B) that localizes at the cytoplasmic face of the endoplasmic reticulum. […] Moreover, the PTP1B inhibitor (i.e., CinnGEL 2Me) is unable to rescue the cells, supporting the mechanism in FIG. 1 that EISA on the cell surface is the key processes for converting L-1P and D-1P to L-1 and D-1, respectively. To further confirm the role of ALPs on cell surface, the precursors were incubated together with ALP, which serves as an exogenous enzyme. The addition of ALP almost eliminates the cytotoxicity of the precursors. […]

[2] = tested on: ALP; assay: ALP catalyzed dephosphorylation of the precursors; assay type: biochemical; details: alkaline phosphatase (ALP), isolated enzyme; substrate 0.1 wt %, ALP 0.1 U/mL, 37° C.; read-out: t1/2 of ALP catalyzed dephosphorylation (converted)
Protocol: After obtaining all the precursors in Example 1, their behaviors were evaluated for EISA in vitro by using TEM and static light scattering (SLS) to examine the nanostructures formed before and after the addition of ALP into the solutions of the precursors. […] As a contrast, D-1P (50 μM) forms slightly more regular fibrous structures with diameter of 8±2 nm, which then interact with each other to form dense 2D/3D networks. […] After 24 h, the percentages of enzymatic dephosphorylation of D-1P and L-1P are about 90% and 80%, respectively. […] After being formed by dephosphorylation, L-1 and D-1 form different nanostructures. […] Similar to L-1, D-1 forms aggregated hollow colloids with a larger mean diameter (106±2 nm) and slightly thicker layers (thickness of 6±2 nm). L-2P or D-2P (50 μM) forms amorphous aggregates after dissolving in PBS buffer (pH=7.4) (FIG. 5). While the addition of ALP converts L-2P to L-2 to form uniform nanofibers with diameter of 9±2 nm, the enzymatic conversion of D-2P to D-2 results in nanoscale aggregates with diameter of 16±2 nm. […] As a charged, steric-hindered motif being connected to the peptide backbone via a relatively flexible linker, TPP disrupts intermolecular packing to disfavor the formation of long nanofibers, but it promotes interparticle interaction to favor polymorphic aggregates before and after enzymatic dephosphorylation. […]

[3] = tested on: HS5 cells; assay: MTT cell viability assay, HS5; assay type: cell-based, human; details: 100 μM
Protocol: as §1
as §2, with “taken. […]” for “taken.”

[4] = tested on: selected Saos2 cell line; assay: MTT assay on selected Saos2 cells after five weeks stimulation; assay type: cell-based, human
Protocol: as §2
Based on the above mechanism of cell death showing that L-1P (or D-1P) activates multiple death signaling pathways, it is believed that cancer cells unlikely would be able to evolve resistance toward this multiple targeting strategy. […] Such a plasticity should minimize the path to drug resistance. […]

[5] = tested on: T1, D-1P (NBD-βA-FFpYK, D enantiomer, with TPP on the ε-amino group of lysine)
T1 sequence: XFFXK

[6] = tested on: T2, L-2P (NBD-βA-FFpYK, L enantiomer, with acetyl on the ε-amine of lysine)
T2 sequence: XFFXK

[7] = tested on: T3, L-1P (NBD-βA-FFpYK, L enantiomer, with TPP on the ε-amino group of lysine)
T3 sequence: XFFXK

[8] = tested on: T4, D-2P (NBD-βA-FFpYK, D enantiomer, with acetyl on the ε-amine of lysine)
T4 sequence: XFFXK

[9] = co-incubated with the targeting motif TPP (3), 48 h
[10] = 100 μM, 48 h, with levamisole (1 mM)
[11] = 100 μM, 48 h, without inhibitor
[12] = 200 μM, 48 h, with levamisole (1 mM)
[13] = 200 μM, 48 h, without inhibitor

COC(=O)C[C@H](NC(=O)[C@H](C)NC(=O)[C@@H](NC(=O)OCc1ccccc1)C(C)C)C(=O)CF [zVAD-fmk, reference compound] (Cbz-Val-Ala-Asp(OMe)-CH2F)
toxicity on Saos2 cells ([1]; 45 μM, by itself): no toxicity

O=C(CCC[P+](c1ccccc1)(c1ccccc1)c1ccccc1)NCCCC[C@@H](NC(=O)[C@@H](Cc1ccc(O)cc1)NC(=O)[C@@H](Cc1ccccc1)NC(=O)[C@@H](Cc1ccccc1)NC(=O)CCNc1ccc([N+](=O)[O-])c2nonc12)C(=O)O [D-1] ({NBD-βAla}-[dF][dF][dY][dK](X1)-OH)
cytotoxicity to Saos2 cells [1]: innocuous

O=C(CCC[P+](c1ccccc1)(c1ccccc1)c1ccccc1)NCCCC[C@H](NC(=O)[C@H](Cc1ccc(O)cc1)NC(=O)[C@H](Cc1ccccc1)NC(=O)[C@H](Cc1ccccc1)NC(=O)CCNc1ccc([N+](=O)[O-])c2nonc12)C(=O)O [L-1] ({NBD-βAla}-FFYK(X1)-OH)
cytotoxicity to Saos2 cells [1]: innocuous

CC(=O)NCCCC[C@H](NC(=O)[C@H](Cc1ccc(OP(=O)(O)O)cc1)NC(=O)[C@H](Cc1ccccc1)NC(=O)[C@H](Cc1ccccc1)NC(=O)CCNc1ccc([N+](=O)[O-])c2nonc12)C(=O)O [L-2P] ({NBD-βAla}-FF[pY]K(Ac)-OH)
cytotoxicity against Saos2 cell ([1]; by itself, 48 h): hardly exhibits cytotoxicity | cytotoxicity against Saos2 cell [1, 9]: hardly exhibits cytotoxicity

CC(=O)NCCCC[C@@H](NC(=O)[C@@H](Cc1ccc(OP(=O)(O)O)cc1)NC(=O)[C@@H](Cc1ccccc1)NC(=O)[C@@H](Cc1ccccc1)NC(=O)CCNc1ccc([N+](=O)[O-])c2nonc12)C(=O)O [D-2P] ({NBD-βAla}-[dF][dF][d(pY)][dK](Ac)-OH)
cytotoxicity against Saos2 cell ([1]; by itself, 48 h): hardly exhibits cytotoxicity | cytotoxicity against Saos2 cell [1, 9]: hardly exhibits cytotoxicity

O=C(CCC[P+](c1ccccc1)(c1ccccc1)c1ccccc1)NCCCC[C@H](NC(=O)[C@H](Cc1ccc(OP(=O)(O)O)cc1)NC(=O)[C@H](Cc1ccccc1)NC(=O)[C@H](Cc1ccccc1)NC(=O)CCNc1ccc([N+](=O)[O-])c2nonc12)C(=O)O [L-1P] ({NBD-βAla}-FF[pY]K(X1)-OH)
half-life at 0.1 wt % [2]: 68.4 min | cell viability of unstimulated Saos2 ([1]; 50 μM, 48 h): 71.7% | cell viability of Saos2 cells [1, 10]: 65.3% | cell viability of Saos2 cells [1, 11]: 21.6% | cell viability of Saos2 cells [1, 12]: 50.5% | cell viability of Saos2 cells [1, 13]: 2.1% | IC50 against Saos2 cells ([1]; 48 h): 76.1 ± 2.5 µg/mL | IC50 ([1]; 48 h): 61 ± 2 µM | cytotoxicity against HS5 cells [3]: almost innocuous | cell viability of the selected cells ([4]; 50 μM, 48 h, after five weeks stimulation): 20.5%

O=C(CCC[P+](c1ccccc1)(c1ccccc1)c1ccccc1)NCCCC[C@@H](NC(=O)[C@@H](Cc1ccc(OP(=O)(O)O)cc1)NC(=O)[C@@H](Cc1ccccc1)NC(=O)[C@@H](Cc1ccccc1)NC(=O)CCNc1ccc([N+](=O)[O-])c2nonc12)C(=O)O [D-1P] ({NBD-βAla}-[dF][dF][d(pY)][dK](X1)-OH)
half-life at 0.1 wt % [2]: 33 min | cell viability of Saos2 cells [1, 10]: 66.0% | cell viability of Saos2 cells [1, 11]: 11.5% | cell viability of Saos2 cells [1, 12]: 53.3% | cell viability of Saos2 cells [1, 13]: 1.8% | IC50 against Saos2 cells ([1]; 48 h): 57.4 ± 2.5 µg/mL | IC50 ([1]; 48 h): 46 ± 2 µM | cytotoxicity against HS5 cells [3]: almost innocuous | IC50 ([4]; cells selected by five weeks stimulation of D-1P (10 to 50 μM), read-out: IC50 against Saos2 cells after five weeks stimulation): 35.2 µM

alkaline phosphatase
percentage of enzymatic dephosphorylation after 24 h [5]: the percentages of enzymatic dephosphorylation of D-1P and L-1P are about 90% and 80%, respectively | t1/2 of ALP catalyzed dephosphorylation (substrate 0.1 wt %, ALP 0.1 U/mL) [5]: The t1/2 was determined to be 0.55 h and 1.14 h for D-1P and L-1P, respectively | enzymatic conversion (dephosphorylation) seen by TEM [6]: the addition of ALP converts L-2P to L-2 to form uniform nanofibers | percentage of enzymatic dephosphorylation after 24 h [7]: the percentages of enzymatic dephosphorylation of D-1P and L-1P are about 90% and 80%, respectively | t1/2 of ALP catalyzed dephosphorylation (substrate 0.1 wt %, ALP 0.1 U/mL) [7]: The t1/2 was determined to be 0.55 h and 1.14 h for D-1P and L-1P, respectively | enzymatic conversion (dephosphorylation) seen by TEM [8]: the enzymatic conversion of D-2P to D-2 results in nanoscale aggregates
